Results published in patent US7393846B2, “Heterocyclic compounds useful for the treatment of inflammatory and allergic disorders” (Glenmark Pharmaceuticals, S.A., priority 2003, dated 2008).
Counter-ions that a name gives are not always drawn. Like-named read-outs stand apart in the source and are kept apart here.

Columns and labels:
PDE4 enzyme = test: Inhibition of Phosphodiesterase Enzymes (PDE4), [3H]cAMP hydrolysis assay; assay type: biochemical; conditions: PDE4 inhibition, 1 μM cAMP, 34° C., 20 minutes
Method: Inhibition of Phosphodiesterase Enzymes (PDE4)
In this assay, PDE4 enzyme converts [^3H] cAMP to the corresponding [^3H] 5′-AMP in proportion to the amount of PDE4 present. The [^3H] 5′-AMP then was quantitatively converted to free [^3H] adenosine and phosphate by the action of snake venom 5′-nucleotidase.
The assay was performed with modification of the method of Thompson and Appleman (Biochemistry; 1971; 10; 311-316) and Schwartz and Passoneau (Proc. Natl. Acad. Sci. U.S.A. 1974; 71; 3844-3848), both references incorporated herein by reference in their entirety, at 34° C. In a 200 ul total reaction mixture, the reaction mixture contained 12.5 mM of Tris, 5 mM MgCl2, 1 μM cAMP (cold) and ^3H cAMP (0.1 uCi), (Amersham). […] Drug samples were then added in the reaction mixture (25 μt/tube). The assay was initiated by addition of enzyme mix (75 μl) and the mixture was incubated for 20 minutes at 34° C. The reaction was stopped by boiling the tubes for 2 mins at 100° C. in a water bath. After cooling on ice for 5 minutes and addition of 50 ug/reaction of 5′-nucleotidase snake venom from Crotalus atrox incubation was carried out again for 20 min. at 34° C. The unreacted substrate was separated from (^3H) Adenosine by addition of Dowex AG 1-X8 (Biorad Lab), (400 ul) which was prequilibrated (1:1:1) in water and ethanol. Reaction mixture was then thoroughly mixed, placed on ice for 15 minutes, vortexed and centrifuged at 14,000 r.p.m. for 2 mins. After centrifugation, a sample of the supernatant was taken and added in 24 well optiplates containing Scintillant (1 ml) and mixed well. The samples in the plates were then determined for radioactivity in a Top Counter and the PDE4 activity was estimated. PDE4 enzyme was present in quantities that yield <30% total hydrolysis of substrate (linear assay conditions).
Results were expressed as percent inhibition (IC50) in nM concentrations. The IC50 values were determined from the concentration curves by nonlinear regression analysis.

PDE4 = test: EC50 of the PDE4 results table (method not given)

| IC50 (PDE4 enzyme) | EC50 (PDE4) | SMILES | other results |
| --- | --- | --- | --- |
| 13.2 nM |  | COc1ccc(C(=O)Nc2ccncc2)c2c1oc1ccc(NC(C)=O)cc12 [Example 49, N-(pyrid-4-yl)-4-methoxy-8-acetamido-dibenzo[b,d]furan-1-carboxamide] | melting point: 267 to 268 °C |
| 8.13 nM | 821 nM | CCOC(=O)CNc1ccc2oc3c(OC)ccc(C(=O)Nc4c(Cl)cncc4Cl)c3c2c1 [Example 52, N-(3,5-dichloropyrid-4-yl)-4-methoxy-8-(2-ethoxy-2-oxo-ethylamino)-dibenzo[b,d]furan-1-carboxamide] |  |
| 3.4 nM | 4.16 nM | CCCCCCNC(=O)Nc1ccc2oc3c(OC)ccc(C(=O)Nc4c(Cl)cncc4Cl)c3c2c1 [Example 27, N-(3,5-dichloropyrid-4-yl)-4-methoxy-8-n-hexylamino carboxamido-dibenzo[b,d]furan-1-carboxamide] |  |
| 22 nM | 11.3 nM | O=C(Nc1ccc2oc3c(OC(F)F)ccc(C(=O)Nc4c(Cl)cncc4Cl)c3c2c1)c1ccco1 [Example 40, N-(3,5-dichloropyrid-4-yl)-4-difluoromethoxy-8-fur-2-ylcarboxamido-dibenzo[b,d]furan-1-carboxamide] |  |

Second part, the molecule before the results:

| SMILES | IC50 (PDE4 enzyme) | EC50 (PDE4) | other results |
| --- | --- | --- | --- |
| CS(=O)(=O)Nc1ccc2oc3c(OC(F)F)ccc(C(=O)Nc4c(Cl)cncc4Cl)c3c2c1 [Example 31, N-(3,5-dichloropyrid-4-yl)-4-difluoromethoxy-8-methanesulfonamido-dibenzo[b,d]furan-1-carboxamide sodium salt] |  |  | IC50 (PDE4 enzyme; sodium salt): 1.43 nM; EC50 (PDE4; sodium salt): 3.46 nM |
| O=C(O)C(=O)Nc1ccc2oc3c(OC(F)F)ccc(C(=O)Nc4c(Cl)cncc4Cl)c3c2c1 [Example 39, N-(3,5-dichloropyrid-4-yl)-4-difluoromethoxy-8-hydroxycarbonylcarboxamido-dibenzo[b,d]furan-1-carboxamide disodium salt] |  |  | IC50 (PDE4 enzyme; disodium salt): 0.598 nM; EC50 (PDE4; disodium salt): 9.19 nM |
| COc1ccc(C(=O)Nc2c(Cl)cncc2Cl)c2c1oc1ccc(NCC(=O)O)cc12 [Example 53, N-(3,5-dichloropyrid-4-yl)-4-methoxy-8-(2-hydroxy-2-oxo-ethylamino)-dibenzo[b,d]furan-1-carboxamide] | 1.05 nM | 71.5 nM |  |
| COc1ccc(C(=O)Nc2c(Cl)cncc2Cl)c2c1oc1ccc(NC(=O)N3CCC(O)CC3)cc12 [Example 24, N-(3,5-dichloropyrid-4-yl)-4-methoxy-8-(4-hydroxypiperidin-1-ylcarboxamido)-dibenzo[b,d]furan-1-carboxamide] | 3.01 nM | 2.94 nM |  |
| CS(=O)(=O)Nc1ccc2oc3c(OC(F)F)ccc(C(=O)Nc4c(Cl)cncc4Cl)c3c2c1 [Example 30, N-(3,5-dichloropyrid-4-yl)-4-difluoromethoxy-8-methanesulfonamido-dibenzo[b,d]furan-1-carboxamide] | 1.63 nM | 3.59 nM |  |
| COc1ccc(C(=O)Nc2c(Cl)cncc2Cl)c2c1oc1ccc(NC(=O)N3CCN(C)CC3)cc12 [Example 23, N-(3,5-dichloropyrid-4-yl)-4-methoxy-8-(N-methylpiperazin-4-ylcarboxamido)-dibenzo[b,d]furan-1-carboxamide hydrochloride] |  |  | IC50 (PDE4 enzyme; hydrochloride): 3.78 nM; EC50 (PDE4; hydrochloride): 4.14 nM |
| CCCCNC(=S)Nc1ccc2oc3c(OC)ccc(C(=O)Nc4c(Cl)cncc4Cl)c3c2c1 [Example 45, N-(3,5-dichloropyrid-4-yl)-4-methoxy-8-(n-butylaminothiocarboxamido)-dibenzo[b,d]furan-1-carboxamide] | 0.773 nM | 6.37 nM |  |
| COc1ccc(C(=O)Nc2c(Cl)cncc2Cl)c2c1oc1ccc(NC(=O)OCC(F)(F)F)cc12 [Example 19, N-(3,5-dichloropyrid-4-yl)-4-methoxy-8-trifluoromethylmethoxycarboxamido-dibenzo[b,d]furan-1-carboxamide] | 4.79 nM | 9.01 nM |  |
| COc1ccc(C(=O)Nc2c(Cl)cncc2Cl)c2c1oc1ccc(NC(=O)NC3CCCC3)cc12 [Example 21, N-(3,5-dichloropyrid-4-yl)-4-methoxy-8-cyclopentylaminocarboxamido-dibenzo[b,d]furan-1-carboxamide] | 1.19 nM | 23.8 nM |  |
